{
  "source": "patent US20130317055A1",
  "about": "“NEURONAL NICOTINIC AGONIST AND METHODS OF USE” (ABBVIE INC., priority 2012, published 2013)",
  "tested_on": "clinically stable subjects with schizophrenia",
  "experiment": "Clinical Study A (Phase 2a, placebo-controlled): MATRICS Consensus Cognitive Battery (MCCB)",
  "format": "in vivo, human",
  "conditions": "for MCCB Reasoning and Problem Solving: Difference from Placebo LS Mean (SE) of Difference / MCCB Reasoning and Problem Solving: LS Mean (SE) of Change from Baseline / MCCB Reasoning and Problem Solving: Observed Mean (SD) of change from baseline / MCCB Attention/Vigilance: Difference from Placebo LS Mean (SE) of Difference / MCCB Attention/Vigilance: LS Mean (SE) of Change from Baseline / MCCB Attention/Vigilance: Observed Mean (SD) of change from baseline / MCCB Social Cognition: Difference from Placebo LS Mean (SE) of Difference / MCCB Social Cognition: LS Mean (SE) of Change from Baseline / MCCB Social Cognition: Observed Mean (SD) of change from baseline / MCCB Speed of Processing: Difference from Placebo LS Mean (SE) of Difference / MCCB Speed of Processing: LS Mean (SE) of Change from Baseline / MCCB Speed of Processing: Observed Mean (SD) of change from baseline / MCCB Verbal Learning: Difference from Placebo LS Mean (SE) of Difference / MCCB Verbal Learning: LS Mean (SE) of Change from Baseline / MCCB Verbal Learning: Observed Mean (SD) of change from baseline / MCCB Visual Learning: Difference from Placebo LS Mean (SE) of Difference / MCCB Visual Learning: LS Mean (SE) of Change from Baseline / MCCB Visual Learning: Observed Mean (SD) of change from baseline / MCCB Working Memory: Difference from Placebo LS Mean (SE) of Difference / MCCB Working Memory: LS Mean (SE) of Change from Baseline / MCCB Working Memory: Observed Mean (SD) of change from baseline: ITT",
  "text": "A Phase 2a proof-of-concept (POC) study in clinically stable subjects with schizophrenia who were clinically stable and received stable doses of atypical antipsychotic therapy. The study was a Phase 2, multi-center, randomized, double-blind, placebo-controlled, parallel group study designed to evaluate the safety and efficacy of doses of (4s)-4-(5-phenyl-1,3,4-thiadiazol-2-yloxy)-1-azatricyclo[3.3.1.1^3,7]decane (Compound A) in clinically stable male and female subjects (ages 20 to 55, inclusive) with a Diagnostic and Statistical Manual of Mental Disorders Fourth Edition, Text Revision (DSM-IV-TR) diagnosis of schizophrenia. Psychiatric diagnoses were confirmed using the Mini-International Neuropsychiatric Interview (MINI) version 6.0.0. The criteria for clinical stability was determined by a combination of retrospective data (over the 4 months prior to the start of Screening, which will be supported by clinical records, patient, identified responsible contact person, and physician interviews), and prospective data assessed during the Prospective Stabilization Period of 28 to 42 days duration.\nThe study was a Phase 2, multi-center, randomized, double-blind, placebo-controlled, parallel group study designed to evaluate the safety and efficacy of doses of (4s)-4-(5-phenyl-1,3,4-thiadiazol-2-yloxy)-1-azatrieyclo[3.3.1.1^3,7]decane, which is also recognized as Compound A, in treating cognitive deficits in subjects with schizophrenia who were clinically stable and receiving one or two atypical antipsychotic medications. Study drug was administered orally.\nThe study consisted of a screening period of at least 28 and up to 42 days, a 84-day outpatient treatment period, a 14-day post-treatment period, and a post-treatment follow-up period. The screening period consisted of three visits: Screening Visit 1, Screening Visit 2, and Day −1. Upon completion of Day −1 procedures, eligible subjects were randomized through an Interactive Voice Response/Interactive Web-Based (IVR/IWB) system. Subjects were randomized in an equal ratio to one of three treatment groups (placebo, 10 mg Compound A, or 25 mg Compound A).\nSubjects were randomized in a 1:1:1 ratio with placebo, 10 mg QD Compound A, of 25 mg Compound A. Each subject was instructed to take study drug once-daily in the morning for 12 weeks. Each daily dose was preferably taken with food. The subject and investigator were blinded to the treatment assignment throughout the study. The treatment assignments for the study subjects are shown below in Table 1.\nThe primary endpoint was the MCCB composite score, and the primary endpoint analysis was the change on the MCCB composite score from baseline to endpoint versus placebo. Other secondary measures included the MCCB domains, the NSA-16, the CANTAB cognition battery (measured at different time points from the MCCB), and the UPSA-2. The Positive and Negative Syndrome Scale (PANSS) was included to document stability in schizophrenia symptomatology.\nThe MCCB was developed by a consortium of academic, industry, the Food and Drug Administration (FDA) and National Institute of Mental Health ([…]) members called Measurement and Treatment Research to Improve Cognition in Schizophrenia (MATRICS). The battery was established in a multiple phase process that involved experts identifying cognitive tests in the literature that had shown deficits in schizophrenia, use of factor analysis to identify key domains of cognitive deficits in schizophrenia, and then empirically identifying the best tests for each domain based on reliability, validity and feasibility for use in clinical trials. The FDA has endorsed the MCCB as an appropriate outcome measure for Phase 3 CDS trials. […]",
  "data": [
    {"compound": "c1ccc(-c2nnc(O[C@@H]3C4CC5C[C@H]3C[N@](C5)C4)s2)cc1", "note": "[Compound A, (4s)-4-(5-phenyl-1,3,4-thiadiazol-2-yloxy)-1-azatricyclo[3.3.1.1^3,7]decane]", "values": [
      {"measurement": "MCCB Reasoning and Problem Solving: Difference from Placebo LS Mean (SE) of Difference", "setting": "10 mg QD, Change to Week 2", "value": "1.24 (1.18) T-score"},
      {"measurement": "MCCB Reasoning and Problem Solving: LS Mean (SE) of Change from Baseline", "setting": "10 mg QD, Change to Week 2", "value": "1.99 (0.84) T-score"},
      {"measurement": "MCCB Reasoning and Problem Solving: Observed Mean (SD) of change from baseline", "setting": "10 mg QD, Change to Week 2", "value": "1.70 (6.03) T-score"},
      {"measurement": "MCCB Attention/Vigilance: Difference from Placebo LS Mean (SE) of Difference", "setting": "10 mg QD, Change to Week 6", "value": "1.29 (1.35) T-score"},
      {"measurement": "MCCB Attention/Vigilance: LS Mean (SE) of Change from Baseline", "setting": "10 mg QD, Change to Week 6", "value": "0.49 (0.98) T-score"},
      {"measurement": "MCCB Attention/Vigilance: Observed Mean (SD) of change from baseline", "setting": "10 mg QD, Change to Week 6", "value": "0.83 (7.62) T-score"},
      {"measurement": "MCCB Reasoning and Problem Solving: Difference from Placebo LS Mean (SE) of Difference", "setting": "10 mg QD, Change to Week 6", "value": "0.53 (1.03) T-score"},
      {"measurement": "MCCB Reasoning and Problem Solving: LS Mean (SE) of Change from Baseline", "setting": "10 mg QD, Change to Week 6", "value": "0.49 (0.75) T-score"},
      {"measurement": "MCCB Reasoning and Problem Solving: Observed Mean (SD) of change from baseline", "setting": "10 mg QD, Change to Week 6", "value": "0.08 (5.57) T-score"},
      {"measurement": "MCCB Social Cognition: Difference from Placebo LS Mean (SE) of Difference", "setting": "10 mg QD, Change to Week 6", "value": "−0.46 (1.34) T-score"},
      {"measurement": "MCCB Social Cognition: LS Mean (SE) of Change from Baseline", "setting": "10 mg QD, Change to Week 6", "value": "1.04 (0.97) T-score"},
      {"measurement": "MCCB Social Cognition: Observed Mean (SD) of change from baseline", "setting": "10 mg QD, Change to Week 6", "value": "1.14 (7.87) T-score"},
      {"measurement": "MCCB Speed of Processing: Difference from Placebo LS Mean (SE) of Difference", "setting": "10 mg QD, Change to Week 6", "value": "0.74 (1.04) T-score"},
      {"measurement": "MCCB Speed of Processing: LS Mean (SE) of Change from Baseline", "setting": "10 mg QD, Change to Week 6", "value": "1.13 (0.74) T-score"},
      {"measurement": "MCCB Speed of Processing: Observed Mean (SD) of change from baseline", "setting": "10 mg QD, Change to Week 6", "value": "1.00 (5.49) T-score"},
      {"measurement": "MCCB Verbal Learning: Difference from Placebo LS Mean (SE) of Difference", "setting": "10 mg QD, Change to Week 6", "value": "0.24 (1.12) T-score"},
      {"measurement": "MCCB Verbal Learning: LS Mean (SE) of Change from Baseline", "setting": "10 mg QD, Change to Week 6", "value": "0.31 (0.82) T-score"},
      {"measurement": "MCCB Verbal Learning: Observed Mean (SD) of change from baseline", "setting": "10 mg QD, Change to Week 6", "value": "0.68 (7.99) T-score"},
      {"measurement": "MCCB Visual Learning: Difference from Placebo LS Mean (SE) of Difference", "setting": "10 mg QD, Change to Week 6", "value": "1.74 (1.57) T-score"},
      {"measurement": "MCCB Visual Learning: LS Mean (SE) of Change from Baseline", "setting": "10 mg QD, Change to Week 6", "value": "1.59 (1.13) T-score"},
      {"measurement": "MCCB Visual Learning: Observed Mean (SD) of change from baseline", "setting": "10 mg QD, Change to Week 6", "value": "1.35 (9.36) T-score"},
      {"measurement": "MCCB Working Memory: Difference from Placebo LS Mean (SE) of Difference", "setting": "10 mg QD, Change to Week 6", "value": "0.86 (1.03) T-score"},
      {"measurement": "MCCB Working Memory: LS Mean (SE) of Change from Baseline", "setting": "10 mg QD, Change to Week 6", "value": "0.35 (0.75) T-score"},
      {"measurement": "MCCB Working Memory: Observed Mean (SD) of change from baseline", "setting": "10 mg QD, Change to Week 6", "value": "0.27 (5.15) T-score"},
      {"measurement": "MCCB Attention/Vigilance: Difference from Placebo LS Mean (SE) of Difference", "setting": "10 mg QD, Change to Week 12", "value": "2.63 (1.49) T-score"},
      {"measurement": "MCCB Attention/Vigilance: LS Mean (SE) of Change from Baseline", "setting": "10 mg QD, Change to Week 12", "value": "0.64 (1.06) T-score"},
      {"measurement": "MCCB Attention/Vigilance: Observed Mean (SD) of change from baseline", "setting": "10 mg QD, Change to Week 12", "value": "1.15 (8.46) T-score"},
      {"measurement": "MCCB Social Cognition: Difference from Placebo LS Mean (SE) of Difference", "setting": "10 mg QD, Change to Week 12", "value": "0.40 (1.52) T-score"},
      {"measurement": "MCCB Social Cognition: LS Mean (SE) of Change from Baseline", "setting": "10 mg QD, Change to Week 12", "value": "0.99 (1.08) T-score"},
      {"measurement": "MCCB Social Cognition: Observed Mean (SD) of change from baseline", "setting": "10 mg QD, Change to Week 12", "value": "1.38 (6.51) T-score"},
      {"measurement": "MCCB Speed of Processing: Difference from Placebo LS Mean (SE) of Difference", "setting": "10 mg QD, Change to Week 12", "value": "1.08 (1.20) T-score"},
      {"measurement": "MCCB Speed of Processing: LS Mean (SE) of Change from Baseline", "setting": "10 mg QD, Change to Week 12", "value": "2.36 (0.85) T-score"},
      {"measurement": "MCCB Speed of Processing: Observed Mean (SD) of change from baseline", "setting": "10 mg QD, Change to Week 12", "value": "2.33 (6.05) T-score"},
      {"measurement": "MCCB Verbal Learning: Difference from Placebo LS Mean (SE) of Difference", "setting": "10 mg QD, Change to Week 12", "value": "0.61 (1.10) T-score"},
      {"measurement": "MCCB Verbal Learning: LS Mean (SE) of Change from Baseline", "setting": "10 mg QD, Change to Week 12", "value": "1.08 (0.79) T-score"},
      {"measurement": "MCCB Verbal Learning: Observed Mean (SD) of change from baseline", "setting": "10 mg QD, Change to Week 12", "value": "1.28 (7.06) T-score"},
      {"measurement": "MCCB Visual Learning: Difference from Placebo LS Mean (SE) of Difference", "setting": "10 mg QD, Change to Week 12", "value": "0.73 (1.59) T-score"},
      {"measurement": "MCCB Visual Learning: LS Mean (SE) of Change from Baseline", "setting": "10 mg QD, Change to Week 12", "value": "0.29 (1.12) T-score"},
      {"measurement": "MCCB Visual Learning: Observed Mean (SD) of change from baseline", "setting": "10 mg QD, Change to Week 12", "value": "0.05 (8.06) T-score"},
      {"measurement": "MCCB Working Memory: Difference from Placebo LS Mean (SE) of Difference", "setting": "10 mg QD, Change to Week 12", "value": "0.80 (1.18) T-score"},
      {"measurement": "MCCB Working Memory: LS Mean (SE) of Change from Baseline", "setting": "10 mg QD, Change to Week 12", "value": "0.92 (0.84) T-score"},
      {"measurement": "MCCB Working Memory: Observed Mean (SD) of change from baseline", "setting": "10 mg QD, Change to Week 12", "value": "0.83 (7.04) T-score"},
      {"measurement": "MCCB domains with dose response relationship", "setting": "10 mg and 25 mg, exception reasoning", "value": "6 of the 7 domains"},
      {"measurement": "MCCB composite score: LS mean change from baseline", "setting": "10 mg, baseline to Week 6, MNIRIVI analysis, placebo LS mean +0.49", "value": "+1.25"},
      {"measurement": "MCCB Reasoning and Problem Solving: Difference from Placebo LS Mean (SE) of Difference", "setting": "25 mg QD, Change to Week 2", "value": "1.20 (1.24) T-score"}
    ]}
  ]
}
